This assay addresses IgG. The experiment in a line: Affinity to IgG by surface plasmon resonance (SPR). The format is binding. Here is the method:
Immobilization levels ranging from 1000-1300 resonance units (RU) are obtained. The running buffer is 10 mM HEPES, pH 7.4, 400 mM NaCl, 0.005% P20, […].

The mark [1] stands for this setting: Biacore 8K, 25° C., IgG on CM5 chip, read-out: IgG SPR Binding Kd.

Where two headings read alike, the source gives them in different places. Where a SMILES comes first, the peptide text is derived from it. Bridges are numbered along the chain shown (N, C = ends). [ ]: non-standard residue; d: D form. Pro(4S-NH2) = N[C@@H]1CN[C@H](C(=O)O)C1

Among the data in patent publication US12091402B2 (Avilar Therapeutics, Inc., priority 2021, dated 2024) are Kd values, retold here.

The Kd is the concentration at which binding is half-saturated. With `CC(C)C[C@@H]1NC(=O)[C@H](Cc2cnc[nH]2)NC(=O)[C@H](Cc2c[nH]c3ccccc23)NC(=O)[C@H](C)NC(=O)[C@@H]2CSSC[C@H](NC(=O)[C@H](Cc3c[nH]c4ccccc34)NC(=O)[C@H](C(C)C)NC(=O)[C@H](CC(C)C)NC(=O)[C@H](CCC(=O)O)NC(=O)CNC1=O)C(=O)N[C@@H]([C@@H](C)O)C(=O)N1CCC[C@@H]1C(=O)N1C[C@@H](N)C[C@H]1C(=O)N[C@@H](C)C(=O)N2` [Intermediate 12], the Kd was less than 100 nM under setting [1] and less than 100 nM (SPR, read-out: IgG KD).

Regarding `C#CCCCC(=O)NCCOCCOCCOCCOCCNC(=O)CC[C@@H]1NC(=O)CNC(=O)[C@H](CC(C)C)NC(=O)[C@H](Cc2cnc[nH]2)NC(=O)[C@H](Cc2c[nH]c3ccccc23)NC(=O)[C@H](C)NC(=O)[C@@H](NC(=O)[C@@H](N)CC(=O)O)CSSC[C@@H](C(=O)N[C@H](C(N)=O)[C@@H](C)O)NC(=O)[C@H](Cc2c[nH]c3ccccc23)NC(=O)[C@H](C(C)C)NC(=O)[C@H](CC(C)C)NC1=O` [Intermediate 2], under setting [1], the Kd was less than 100 nM.

Regarding `CC(C)C[C@@H]1NC(=O)[C@H](Cc2cnc[nH]2)NC(=O)[C@H](Cc2c[nH]c3ccccc23)NC(=O)[C@H](C)NC(=O)[C@@H]2CSSC[C@H](NC(=O)[C@H](Cc3c[nH]c4ccc(Cl)cc34)NC(=O)[C@H](C(C)C)NC(=O)[C@H](CC(C)C)NC(=O)[C@H](CCC(=O)O)NC(=O)CNC1=O)C(=O)N[C@@H]([C@@H](C)O)C(=O)N1CCC[C@@H]1C(=O)N1C[C@@H](N)C[C@H]1C(=O)N[C@@H](CC(=O)O)C(=O)N2` [Intermediate 29], the Kd is less than 100 nM under setting [1] and less than 100 nM (SPR, read-out: IgG KD).

Turning to `CC(C)C[C@@H]1NC(=O)[C@H](Cc2cnc[nH]2)NC(=O)[C@H](Cc2c[nH]c3ccccc23)NC(=O)[C@H](C)NC(=O)[C@@H]2CSSC[C@H](NC(=O)[C@H](Cc3c[nH]c4ccccc34)NC(=O)[C@H](C(C)C)NC(=O)[C@H](CC(C)C)NC(=O)[C@H](CCC(=O)O)NC(=O)CNC1=O)C(=O)N[C@@H]([C@@H](C)O)C(=O)N1CCC[C@@H]1C(=O)N1C[C@@H](N)C[C@H]1C(=O)N[C@@H](CC(N)=O)C(=O)N2` [Intermediate 13] (cyclo(AWHLGELVWCT[dP][Pro(4S-NH2)]NC); disulfide 10-15), the Kd under setting [1] was less than 100 nM and the dissociation constant (Kd) (SPR, read-out: IgG KD) is less than 100 nM.

For `C#CCCCC(=O)NCCOCCOCCOCCOCCC(=O)N[C@@H](CC(=O)O)C(=O)N[C@H]1CSSC[C@@H](C(=O)N[C@H](C(N)=O)[C@@H](C)O)NC(=O)[C@H](Cc2c[nH]c3ccccc23)NC(=O)[C@H](C(C)C)NC(=O)[C@H](CC(C)C)NC(=O)[C@H](CCC(=O)O)NC(=O)CNC(=O)[C@H](CC(C)C)NC(=O)[C@H](Cc2cnc[nH]2)NC(=O)[C@H](Cc2c[nH]c3ccccc23)NC(=O)[C@H](C)NC1=O` [Intermediate 1], the Kd is less than 100 nM under setting [1] and less than 100 nM (SPR, read-out: IgG KD).

As to `C#CCCCC(=O)NCCOCCOCCC(=O)N[C@H]1C[C@H]2C(=O)N[C@@H](CC(=O)O)C(=O)N[C@H]3CSSC[C@H](NC(=O)[C@H](Cc4c[nH]c5ccccc45)NC(=O)[C@H](C(C)C)NC(=O)[C@H](CC(C)C)NC(=O)[C@H](CCC(=O)O)NC(=O)CNC(=O)[C@H](CC(C)C)NC(=O)[C@H](Cc4cnc[nH]4)NC(=O)[C@H](Cc4c[nH]c5ccccc45)NC(=O)[C@H](C)NC3=O)C(=O)N[C@@H]([C@@H](C)O)C(=O)N3CCC[C@@H]3C(=O)N2C1` [Intermediate 6], under setting [1], the dissociation constant (Kd) was less than 100 nM.

`CC(C)C[C@@H]1NC(=O)[C@H](Cc2cnc[nH]2)NC(=O)[C@H](Cc2c[nH]c3ccccc23)NC(=O)[C@H](C)NC(=O)[C@@H]2CSSC[C@H](NC(=O)[C@H](Cc3c[nH]c4cc(Cl)ccc34)NC(=O)[C@H](C(C)C)NC(=O)[C@H](CC(C)C)NC(=O)[C@H](CCC(=O)O)NC(=O)CNC1=O)C(=O)N[C@@H]([C@@H](C)O)C(=O)N1CCC[C@@H]1C(=O)N1C[C@@H](N)C[C@H]1C(=O)N[C@@H](CC(=O)O)C(=O)N2` [Intermediate 19]: the Kd is less than 100 nM under setting [1] and less than 100 nM (SPR, read-out: IgG KD).

Consider `CC(C)C[C@@H]1NC(=O)[C@H](C)NC(=O)CNC(=O)[C@H](CC(C)C)NC(=O)[C@H](Cc2cnc[nH]2)NC(=O)[C@H](Cc2c[nH]c3ccccc23)NC(=O)[C@H](C)NC(=O)[C@@H]2CSSC[C@H](NC(=O)[C@H](Cc3c[nH]c4ccccc34)NC(=O)[C@H](C(C)C)NC1=O)C(=O)N[C@@H]([C@@H](C)O)C(=O)N1CCC[C@@H]1C(=O)N1C[C@@H](N)C[C@H]1C(=O)N[C@@H](CC(=O)O)C(=O)N2` [Intermediate 17] (cyclo(ALVWCT[dP][Pro(4S-NH2)]DCAWHLG); disulfide 5-10), for which the Kd under setting [1] is less than 100 nM and the Kd (SPR, read-out: IgG KD) was less than 100 nM.

Regarding `CC(C)C[C@@H]1NC(=O)[C@H](Cc2cnc[nH]2)NC(=O)[C@H](Cc2c[nH]c3ccccc23)NC(=O)[C@H](C)NC(=O)[C@@H]2CSSC[C@H](NC(=O)[C@H](Cc3c[nH]c4ccccc34)NC(=O)[C@H](C(C)C)NC(=O)[C@H](CC(C)C)NC(=O)[C@H](CCC(N)=O)NC(=O)CNC1=O)C(=O)N[C@@H]([C@@H](C)O)C(=O)N1CCC[C@@H]1C(=O)N1C[C@@H](N)C[C@H]1C(=O)N[C@@H](CC(=O)O)C(=O)N2` [Intermediate 18] (cyclo(AWHLGQLVWCT[dP][Pro(4S-NH2)]DC); disulfide 10-15), the Kd was less than 100 nM under setting [1] and less than 100 nM (SPR, read-out: IgG KD).

Regarding `C#CCCCC(=O)NCCOCCOCCOCCOCCC(=O)N[C@H]1C[C@H]2C(=O)N[C@@H](CC(=O)O)C(=O)N[C@H]3CSSC[C@H](NC(=O)[C@H](Cc4c[nH]c5ccccc45)NC(=O)[C@H](C(C)C)NC(=O)[C@H](CC(C)C)NC(=O)[C@H](CCC(=O)O)NC(=O)CNC(=O)[C@H](CC(C)C)NC(=O)[C@H](Cc4cnc[nH]4)NC(=O)[C@H](Cc4c[nH]c5ccccc45)NC(=O)[C@H](C)NC3=O)C(=O)N[C@@H]([C@@H](C)O)C(=O)N3CCC[C@@H]3C(=O)N2C1` [Intermediate 4], the Kd was less than 100 nM under setting [1] and less than 100 nM (SPR, read-out: IgG KD).

For the compound `CC(C)C[C@@H]1NC(=O)[C@H](C)NC(=O)CNC(=O)[C@H](CC(C)C)NC(=O)[C@H](Cc2cnc[nH]2)NC(=O)[C@H](Cc2c[nH]c3ccccc23)NC(=O)[C@H](C)NC(=O)[C@@H]2CSSC[C@H](NC(=O)[C@H](Cc3c[nH]c4ccccc34)NC(=O)[C@H](C(C)C)NC1=O)C(=O)N[C@@H]([C@@H](C)O)C(=O)N1CCC[C@@H]1C(=O)N1C[C@@H](N)C[C@H]1C(=O)N[C@@H](C)C(=O)N2` [Intermediate 25] (cyclo(ACAWHLGALVWCT[dP][Pro(4S-NH2)]); disulfide 2-12), the Kd reads like this: under setting [1], less than 100 nM; (SPR, read-out: IgG KD) less than 100 nM.

For the compound `C#CCCCC(=O)NCCOCCC(=O)N[C@H]1C[C@H]2C(=O)N[C@@H](CC(=O)O)C(=O)N[C@H]3CSSC[C@H](NC(=O)[C@H](Cc4c[nH]c5ccccc45)NC(=O)[C@H](C(C)C)NC(=O)[C@H](CC(C)C)NC(=O)[C@H](CCC(=O)O)NC(=O)CNC(=O)[C@H](CC(C)C)NC(=O)[C@H](Cc4cnc[nH]4)NC(=O)[C@H](Cc4c[nH]c5ccccc45)NC(=O)[C@H](C)NC3=O)C(=O)N[C@@H]([C@@H](C)O)C(=O)N3CCC[C@@H]3C(=O)N2C1` [Intermediate 7], the Kd under setting [1] is less than 100 nM.

As to `CC(C)C[C@@H]1NC(=O)[C@H](Cc2cnc[nH]2)NC(=O)[C@H](Cc2c[nH]c3ccccc23)NC(=O)[C@H](C)NC(=O)[C@@H]2CSSC[C@H](NC(=O)[C@H](Cc3c[nH]c4ccccc34)NC(=O)[C@H](C(C)C)NC(=O)[C@H](CC(C)C)NC(=O)[C@H](CCC(=O)O)NC(=O)CNC1=O)C(=O)N[C@@H]([C@@H](C)O)C(=O)N1CCC[C@@H]1C(=O)N1C[C@H](N)C[C@H]1C(=O)N[C@@H](CC(=O)O)C(=O)N2` [Intermediate 30], the Kd (SPR, read-out: IgG KD) is less than 100 nM.
